From ChEMBL document CHEMBL1121593, “Synthesis of 2,4-disubstituted 6-methoxy-8-aminoquinoline analogues as potential antiparasitics” (J Med Chem, 1980)

Tests used:
[1] = system: Mus musculus; assay: Mean survival time which expresses the antimalarial activity of compound was measured against Plasmodium berghei in mice (Mus musculus) at 20 mg/kg dose; format: functional
[2] = system: Mus musculus; assay: (§1) Mean survival time which expresses the antimalarial activity of compound was measured against Plasmodium berghei in mice (Mus musculus) at 640 mg/kg dose; format: functional
[3] = system: Mus musculus; assay: Mean survival time which expresses the antimalarial activity of compound was measured against Plasmodium berghei in mice (Mus musculus) a 160 mg/kg dose; format: functional
[4] = system: Mus musculus; assay: (§2) Mean survival time which expresses the antimalarial activity of compound was measured against Plasmodium berghei in mice (Mus musculus) at 320 mg/kg dose; format: functional
[5] = system: Mus musculus; assay: Mean survival time which expresses the antimalarial activity of compound was measured against Plasmodium berghei in mice (Mus musculus) at 80 mg/kg dose; format: functional
[6] = system: Mus musculus; assay: Mean survival time which expresses the antimalarial activity of compound was measured against Plasmodium berghei in mice (Mus musculus) at 40 mg/kg dose; format: functional
[7] = system: Mus musculus; assay: (§3) Mean survival time which expresses the antimalarial activity of compound was measured against Plasmodium berghei in mice (Mus musculus) at 160 mg/kg dose; format: functional
[8] = system: Cricetinae gen. sp.; assay: (§4) G index is the relative activity to that of glucantime was measured on Leishmania donovani in hamsters.; format: functional, hamster
[9] = system: Plasmodium cynomolgi; assay: Radical curative activity in presence of chloroquine against Plasmodium cynomolgi infected Rhesus monkey at 1.3 mg/kg; format: functional
[10] = system: Mus musculus; assay: as §1; format: ADME, organism-based; parameters: dose 640 mg/kg; conditions: in vivo
[11] = system: Cricetinae gen. sp.; assay: as §4; format: functional, Cricetulus griseus
[12] = system: Mus musculus; assay: as §3; format: ADME, organism-based; parameters: dose 160 mg/kg; conditions: in vivo
[13] = system: Mus musculus; assay: as §2; format: ADME, organism-based; parameters: dose 320 mg/kg; conditions: in vivo
[14] = system: Mus musculus; assay: Mean survival time which expresses the antimalarial activity of compound was measured against Plasmodium berghei in mice (Mus musculus) at […] mg/kg dose; format: functional

Row | Structure (SMILES) | Delta MST [1] | Delta MST [2] | Delta MST [6] | Delta MST [7] | Relative activity [8] | also measured
1 | C=Cc1cc(C)c2cc(OC)cc(NC(C)CCCN)c2n1 (centres undefined) | 0 days | 6.2 days | 0 days | – | – | Delta MST [3]: 0.4 days; Delta MST [4]: 2.2 days; Delta MST [5]: 0.6 days
2 | CCc1cc(C)nc2c(NCCCCCCN(CC)CC)cc(OC)cc12 | – | 4.9 days | 1.3 days | 2.7 days | 29.2 | –
3 | CCc1cc(C)nc2c(NC(C)CCCN)cc(OC)cc12 (centres undefined) | 1.7 days | 10.3 days | 2.3 days | 5.1 days | – | Delta MST [4]: 7.7 days; Delta MST [5]: 3.7 days
4 | CCc1cc(C)c2cc(OC)cc(NC(C)CCCN)c2n1 (centres undefined) | – | – | – | – | 8.99 | Cured [9]: 90%
5 | CCN(CC)CCCCCCNc1cc(OC)cc2c(C)cc(CCBr)nc12 | – | – | 0.3 days | 0 days | – | Deaths [10]: 5; Relative activity [11]: 2.6; Deaths [12]: 5
6 | CCc1cc(C)c2cc(OC)cc(NCCCCCCN(CC)CC)c2n1 | – | 0.7 days | 0.3 days | 0.3 days | 130 | –
7 | COc1cc(NC(C)CCCN)c2ncccc2c1 (centres undefined) [PRIMAQUINE] | 4 days | – | 5 days | – | 2.1 | Deaths [13]: 5; Deaths [10]: 5; Delta MST [14]: 9.4 days; Deaths [12]: 2
